Measurements: BindingDB's records for doi:10.1021/jm8009124 (University of Connecticut At Storrs, 2008)
pIC50: −log10 of the molar value.

Target: T1, Bifunctional dihydrofolate reductase-thymidylate synthase (Cryptosporidium parvum, UniProt Q27552)
T1 sequence (Q27552 whole entry): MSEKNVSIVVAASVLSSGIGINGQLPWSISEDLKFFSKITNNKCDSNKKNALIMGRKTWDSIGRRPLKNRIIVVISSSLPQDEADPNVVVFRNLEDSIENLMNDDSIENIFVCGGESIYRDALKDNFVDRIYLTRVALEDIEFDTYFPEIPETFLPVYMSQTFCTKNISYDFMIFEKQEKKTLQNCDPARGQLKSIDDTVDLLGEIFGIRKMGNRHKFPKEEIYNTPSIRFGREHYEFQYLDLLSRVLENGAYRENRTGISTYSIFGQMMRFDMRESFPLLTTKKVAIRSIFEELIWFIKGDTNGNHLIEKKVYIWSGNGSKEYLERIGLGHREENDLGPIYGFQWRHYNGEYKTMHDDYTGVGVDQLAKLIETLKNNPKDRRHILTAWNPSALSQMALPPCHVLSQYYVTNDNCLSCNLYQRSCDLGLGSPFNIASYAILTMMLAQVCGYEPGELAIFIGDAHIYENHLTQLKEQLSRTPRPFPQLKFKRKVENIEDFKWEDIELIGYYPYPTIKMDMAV
Assay: DHFR Inhibition Assay
Details: pH 7; 25 °C
Method: Enzyme activity assays were performed by monitoring the change in UV absorbance at 340 nm. Enzyme assays were performed at least four times. IC50 values and their standard deviations were calculated in the presence of varying ligand concentration.

Row | SMILES | pIC50
1 | COc1cc(-c2c(C(C)C)cccc2C(C)C)cc(C(C)C#Cc2c(C)nc(N)nc2N)c1 (stereo unspecified) [5-(3-{3-[2,6-bis(propan-2-yl)phenyl]-5-methoxyphenyl}but-1-yn-1-yl)-6-methylpyrimidine-2,4-diamine] | 8.00
2 | COc1cc(C(C)C#Cc2c(C)nc(N)nc2N)ccc1-c1ccccc1 (stereo unspecified) [5-[3-(3-methoxy-4-phenylphenyl)but-1-yn-1-yl]-6-methylpyrimidine-2,4-diamine] | 7.72
3 | COc1cc(-c2ccccc2)cc([C@@H](C)C#Cc2c(C)nc(N)nc2N)c1 [5-[(3R)-3-(3-methoxy-5-phenylphenyl)but-1-yn-1-yl]-6-methylpyrimidine-2,4-diamine] | 8.96
4 | COc1cc(-c2ccccc2)cc([C@H](C)C#Cc2c(C)nc(N)nc2N)c1 [5-[(3S)-3-(3-methoxy-5-phenylphenyl)but-1-yn-1-yl]-6-methylpyrimidine-2,4-diamine] | 7.52
5 | COc1cc(C(C)C#Cc2c(C)nc(N)nc2N)ccc1-c1ccccc1C (stereo unspecified) [5-{3-[3-methoxy-4-(2-methylphenyl)phenyl]but-1-yn-1-yl}-6-methylpyrimidine-2,4-diamine] | 7.44
6 | COc1cc(C(C)C#Cc2c(C)nc(N)nc2N)ccc1-c1c(C)cccc1C (stereo unspecified) [5-{3-[4-(2,6-dimethylphenyl)-3-methoxyphenyl]but-1-yn-1-yl}-6-methylpyrimidine-2,4-diamine] | 8.13
